# What was measured:
# [1] = system: APESV; assay: Example IV postemergence foliar-applied, greenhouse, cereal crops weeds; type: in vivo, Apera spica-venti (L.) Beauv.
# Protocol: (§1) Seeds of the desired test plant species were planted in Sun Gro MetroMix® 306 planting mixture, which typically has a pH of 6.0 to 6.8 and an organic matter content of about 30 percent, in plastic pots with a surface area of 103.2 square centimeters (cm^2). […] The plants were grown for 7-36 days in a greenhouse with an approximate 14 hour photoperiod which was maintained at about 18° C. during the day and about 17° C. during the night. Nutrients and water were added on a regular basis and supplemental lighting was provided with overhead metal halide 1000-Watt lamps as necessary. The plants were employed for testing when they reached the second or third true leaf stage.
# (§2) Treatments consisted of the benzyl ester of 4-amino-3-chloro-5-fluoro-6-(4-chloro-2-fluoro-3-methoxy-phenyl)pyridine-2-carboxylic acid (Compound A), formulated as an SC, a second cereal herbicide alone and then both in combination.
# (§3) Other herbicidal components were applied on an active ingredient basis and included acetyl-CoA carboxylase (ACCase)-inhibiting herbicides clodinafop-propargyl, fenoxaprop-P-ethyl, pinoxaden and tralkoxydim.
# (§4) Measured aliquots of benzyl ester of 4-amino-3-chloro-5-fluoro-6-(4-chloro-2-fluoro-3-methoxy-phenyl)pyridine-2-carboxylic acid (Compound A) were placed in 25 milliliter (mL) glass vials and diluted in a volume of 1.25% (v/v) Agri-Dex® crop oil concentrate to obtain stock solutions. Compound requirements are based upon a 12 mL application volume at a rate of 187 liters per hectare (L/ha). […] Formulated compounds were applied to the plant material with an overhead Mandel track sprayer equipped with an 8002E nozzle calibrated to deliver 187 L/ha over an application area of 0.503 square meters (m^2) at a spray height of 18 inches (46 cm) above average plant canopy. Control plants were sprayed in the same manner with the solvent blank.
# (§5) The treated plants and control plants were placed in a greenhouse as described above and watered by sub-irrigation to prevent wash-off of the test compounds. After 20-22 days, the condition of the test plants as compared with that of the control plants was determined visually and scored on a scale of 0 to 100 percent where 0 corresponds to no injury and 100 corresponds to complete kill.
# (§6) Colby's equation was used to determine the herbicidal effects expected from the mixtures (Colby, S. R. 1967. Calculation of the synergistic and antagonistic response of herbicide combinations. Weeds 15:20-22.).
# (§7) The following equation was used to calculate the expected activity of mixtures containing two active ingredients, A and B: Expected=A+B−(A×B/100)
# [2] = system: LOLMU; assay: as above; type: in vivo, Lolium multiflorum Lam.
# Protocol: (§8) Seeds of the desired test plant species were planted in Sun Gro MetroMix® 306 planting mixture, which typically has a pH of 6.0 to 6.8 and an organic matter content of about 30 percent, in plastic pots with a surface area of 103.2 square centimeters (cm^2). When required to ensure good germination and healthy plants, a fungicide treatment and/or other chemical or physical treatment was applied. The plants were grown for 7-36 days in a greenhouse with an approximate 14 hour photoperiod which was maintained at about 18° C. during the day and about 17° C. during the night. Nutrients and water were added on a regular basis and supplemental lighting was provided with overhead metal halide 1000-Watt lamps as necessary. The plants were employed for testing when they reached the second or third true leaf stage.
# as §2, §3
# (§9) Measured aliquots of benzyl ester of 4-amino-3-chloro-5-fluoro-6-(4-chloro-2-fluoro-3-methoxy-phenyl)pyridine-2-carboxylic acid (Compound A) were placed in 25 milliliter (mL) glass vials and diluted in a volume of 1.25% (v/v) Agri-Dex® crop oil concentrate to obtain stock solutions. Compound requirements are based upon a 12 mL application volume at a rate of 187 liters per hectare (L/ha). Spray solutions of the second cereal herbicide and experimental compound mixtures were prepared by adding the stock solutions to the appropriate amount of dilution solution to form 12 mL spray solution with active ingredients in two- and three-way combinations. Formulated compounds were applied to the plant material with an overhead Mandel track sprayer equipped with an 8002E nozzle calibrated to deliver 187 L/ha over an application area of 0.503 square meters (m^2) at a spray height of 18 inches (46 cm) above average plant canopy. Control plants were sprayed in the same manner with the solvent blank.
# as §5, §6, §7
# [3] = system: KCHSC; assay: as above; type: in vivo, Kochia scoparia (L.) Schrad.
# Protocol: as §1, §2, §3, §4, §5, §6, §7
# [4] = system: PHAMI; assay: as above; type: in vivo, Phalaris minor Retz.
# Protocol: as §1, §2, §3, §4, §5, §6, §7
# [5] = system: ALOMY; assay: as above; type: in vivo, Alopecurus myosuroides Huds.
# Protocol: as §8, §2, §3, §9
# as §5, with “kill. […]” for “kill.”
# [6] = system: CYPIR; assay: Example I postemergence foliar-applied, greenhouse, direct seeded rice weeds; type: in vivo, Cyperus iria L.
# Description: Seeds or nutlets of the desired test plant species were planted in a soil matrix prepared by mixing a loam or sandy loam soil (e.g., 28.6 percent silt, 18.8 percent clay, and 52.6 percent sand, with a pH of about 5.8 and an organic matter content of about 1.8 percent) and calcareous grit in an 80 to 20 ratio. The soil matrix was contained in plastic pots with a volume of 1 quart and a surface area of 83.6 square centimeters (cm^2). When required to ensure good germination and healthy plants, a fungicide treatment and/or other chemical or physical treatment was applied. The plants were grown for 8-22 days in a greenhouse with an approximate 14 hr. photoperiod which was maintained at about 29° C. during the day and 26° C. during the night. Nutrients (Peters Excel® 15-5-15 5-Ca 2-Mg and iron chelate) were applied in the irrigation solution as needed and water was added on a regular basis. Supplemental lighting was provided with overhead metal halide 1000-Watt lamps as necessary. The plants were employed for testing when they reached the first through fourth true leaf stage.
# Treatments consisted of the acid or esters of 4-amino-3-chloro-5-fluoro-6-(4-chloro-2-fluoro-3-methoxy-phenyl)pyridine-2-carboxylic acid (Compound A), each formulated as an SC (suspension concentrate), and various herbicidal components alone and in combination.
# Other herbicidal components were applied on an acid equivalent (ae) or active ingredient (ai) basis and included acetyl coA carboxylase (ACCase)-inhibiting herbicides (cyclohexanedione and aryloxyphenoxypropionate chemical classes) cyhalofop-butyl formulated as Clincher® SF (285 gr ai/L EC), diclofop-methyl formulated as Hoelon® 3EC, fenoxaprop-p-ethyl+isoxadifen-ethyl formulated as RiceStar® HT (0.58 lb./gal EC), fenoxaprop-p-ethyl+mefenpyr diethyl formulated as Puma® IEC, metamifop formulated as Metamifop EC, haloxyfop-methyl formulated as Gallant Super®, fluazifop-p-butyl formulated as Fusilade® DX, quizalofop-p-ethyl formulated as Assure® II, profoxydim formulated as Aura® 20EC, clethodim applied as Intensity®, sethoxydim formulated as Poast®, and tralkoxydim formulated as Achieve®.
# Treatment requirements were calculated based upon the rates being tested, the concentration of active ingredient or acid equivalent in the formulation, and a 12 mL application volume at a rate of 187 L/ha.
# For treatments comprised of formulated compounds, measured amounts of compounds were placed individually in 25 mL glass vials and diluted in a volume of 1.25% (v/v) Agri-Dex® crop oil concentrated to obtain 12× stock solutions. […] Application solutions were prepared by adding an appropriate amount of each stock solution (e.g., 1 mL) and diluted to the appropriate final concentrations with the addition of 10 mL of an aqueous mixture of 1.25% (v/v) crop oil concentrate so that the final spray solutions contained 1.25+/−0.05% (v/v) crop oil concentrate.
# All stock solutions and applications solutions were visually inspected for compound compatibility prior to application. Spray solutions were applied to the plant material with an overhead Mandel track sprayer equipped with a 8002E nozzles calibrated to deliver 187 L/ha over an application area of 0.503 m^2 at a spray height of 18 to 20 inches (46 to 50 cm) above average plant canopy height. Control plants were sprayed in the same manner with the solvent blank.
# as §5, with “After approximately 3 weeks,” for “After 20-22 days,”, “the untreated” for “the control”, “injury or growth inhibition” for “injury”, “kill. […]” for “kill.”
# [7] = system: AVEFA; assay: Example IV postemergence foliar-applied, greenhouse, cereal crops weeds; type: in vivo, Avena fatua L.
# Protocol: as §8, §2, §3, §9
# as §5, with “kill. […]” for “kill.”
structure (smiles),measurement,setting,value
"C#CCOC(=O)[C@@H](C)Oc1ccc(Oc2ncc(Cl)cc2F)cc1 [Clodinafop-propargyl, 2-propynyl(2R)-2-[4-[(5-chloro-3-fluoro-2-pyridinyl)oxy]phenoxy]propanoate]",Visual Weed Control (%) - 21 DAA APESV Obs,[1]; Clodinafop-propargyl 15 gai/ha,15%
same,Visual Weed Control (%) - 21 DAA APESV Obs,[1]; Clodinafop-propargyl 30 gai/ha,68%
same,Visual Weed Control (%) - 21 DAA LOLMU Obs,[2]; Clodinafop-propargyl 15 gai/ha,60%
same,Visual Weed Control (%) - 21 DAA LOLMU Obs,[2]; Clodinafop-propargyl 30 gai/ha,48%
same,Visual Weed Control (%) - 21 DAA KCHSC Obs,[3]; Clodinafop-propargyl 15 gai/ha,0%
same,Visual Weed Control (%) - 21 DAA KCHSC Obs,[3]; Clodinafop-propargyl 30 gai/ha,10%
same,Visual Weed Control (%) - 21 DAA PHAMI Obs,[4]; Clodinafop-propargyl 15 gai/ha,48%
same,Visual Weed Control (%) - 21 DAA PHAMI Obs,[4]; Clodinafop-propargyl 30 gai/ha,55%
same,Visual Weed Control (%) - 21 DAA ALOMY Obs,[5]; Clodinafop-propargyl 15 gai/ha,80%
same,Visual Weed Control (%) - 21 DAA ALOMY Obs,[5]; Clodinafop-propargyl 30 gai/ha,82%
"CCO/N=C(/CC)C1=C(O)CC(c2c(C)cc(C)cc2C)CC1=O (stereo not drawn) [Tralkoxydim, 2-[1-(ethoxyimino)propyl]-3-hydroxy-5-(2,4,6-trimethylphenyl)-2-cyclohexen-1-one]",Visual Weed Control (%) - 22 DAA CYPIR Obs,[6]; 100 gai/ha,0%
same,Visual Weed Control (%) - 22 DAA CYPIR Obs,[6]; 200 gai/ha,0%
same,Visual Weed Control (%) - 21 DAA LOLMU Obs,[2]; Tralkoxydim 50 gai/ha,86%
same,Visual Weed Control (%) - 21 DAA LOLMU Obs,[2]; Tralkoxydim 100 gai/ha,96%
same,Visual Weed Control (%) - 21 DAA KCHSC Obs,[3]; Tralkoxydim 50 gai/ha,10%
same,Visual Weed Control (%) - 21 DAA KCHSC Obs,[3]; Tralkoxydim 100 gai/ha,0%
same,Visual Weed Control (%) - 21 DAA AVEFA Obs,[7]; Tralkoxydim 50 gai/ha,78%
same,Visual Weed Control (%) - 21 DAA AVEFA Obs,[7]; Tralkoxydim 100 gai/ha,99%

# Reference: patent US9232796B2, “Herbicidal compositions comprising 4-amino-3-chloro-5-fluoro-6-(4-chloro-2-fluoro-3-methoxyphenyl) pyridine-2-carboxylic acid or a derivative thereof and acetyl-CoA carboxylase (ACCase) inhibitors” (DOW AGROSCIENCES LLC, priority 2012, dated 2016)
